# Experimental data taken from patent US12577241B2, “Polycyclic pyridopyrazine derivative” (Shionogi & Co., Ltd., priority 2019, dated 2026).
# Key:
# HIV [1] = assay: Test Example 1: Anti-HIV activity (MT-4 cells, CellTiter-Glo); format: cell-based; details: Human immunodeficiency virus 1, MT4, 96 h, 4 days culture, CellTiter-Glo luminescence, read-out: EC50 (50% HIV inhibitory concentration)
# Protocol: Test Example 1: Anti-HIV Activity
# Serial dilutions of a test sample were prepared in a 384-well microplate by a dispensing machine. 6.25×10^4 cells/mL of a MT-4 cell suspension was dispensed at 20 μL/well to the plate containing the test sample. Then, an HIV virus solution was dispensed at 20 μL/well. The plate was mixed with a plate mixer and cultured for 4 days in a CO2 incubator. On day 4 of culture, CellTiter-Glo or CellTiter-Glo 2.0 was dispensed at 20 μL/well. The plate was reacted while being stirred with the plate mixer at room temperature for about 15 minutes. The amount of luminescence of the plate after the reaction was measured with a microplate reader. A 50% HIV inhibitory concentration (EC50) was determined from a concentration-dependent curve using the following 4 parameter logistic curve fitting model. y=A+((B−A)/(1+((C/x)^D))) • A=minimum rate of inhibition (negative control, 0%) • B=maximum rate of inhibition (positive control, 100%) • C=compound concentration at an inflection point • D=slope coefficient • x=compound concentration • y=rate of inhibition (%) (Results)
# Nav 1.5 channel = molecular target: T1, Nav 1.5 channel (Homo sapiens, UniProt Q14524); assay: Test Example 13: Nav test; format: cell-based; details: HEK cells expressing Nav 1.5 channel, INa, whole cell patch clamp, relative to vehicle
# T1 construct: expressed in transfected cells; host or cells: HEK cells
# T1 sequence (Q14524 whole entry): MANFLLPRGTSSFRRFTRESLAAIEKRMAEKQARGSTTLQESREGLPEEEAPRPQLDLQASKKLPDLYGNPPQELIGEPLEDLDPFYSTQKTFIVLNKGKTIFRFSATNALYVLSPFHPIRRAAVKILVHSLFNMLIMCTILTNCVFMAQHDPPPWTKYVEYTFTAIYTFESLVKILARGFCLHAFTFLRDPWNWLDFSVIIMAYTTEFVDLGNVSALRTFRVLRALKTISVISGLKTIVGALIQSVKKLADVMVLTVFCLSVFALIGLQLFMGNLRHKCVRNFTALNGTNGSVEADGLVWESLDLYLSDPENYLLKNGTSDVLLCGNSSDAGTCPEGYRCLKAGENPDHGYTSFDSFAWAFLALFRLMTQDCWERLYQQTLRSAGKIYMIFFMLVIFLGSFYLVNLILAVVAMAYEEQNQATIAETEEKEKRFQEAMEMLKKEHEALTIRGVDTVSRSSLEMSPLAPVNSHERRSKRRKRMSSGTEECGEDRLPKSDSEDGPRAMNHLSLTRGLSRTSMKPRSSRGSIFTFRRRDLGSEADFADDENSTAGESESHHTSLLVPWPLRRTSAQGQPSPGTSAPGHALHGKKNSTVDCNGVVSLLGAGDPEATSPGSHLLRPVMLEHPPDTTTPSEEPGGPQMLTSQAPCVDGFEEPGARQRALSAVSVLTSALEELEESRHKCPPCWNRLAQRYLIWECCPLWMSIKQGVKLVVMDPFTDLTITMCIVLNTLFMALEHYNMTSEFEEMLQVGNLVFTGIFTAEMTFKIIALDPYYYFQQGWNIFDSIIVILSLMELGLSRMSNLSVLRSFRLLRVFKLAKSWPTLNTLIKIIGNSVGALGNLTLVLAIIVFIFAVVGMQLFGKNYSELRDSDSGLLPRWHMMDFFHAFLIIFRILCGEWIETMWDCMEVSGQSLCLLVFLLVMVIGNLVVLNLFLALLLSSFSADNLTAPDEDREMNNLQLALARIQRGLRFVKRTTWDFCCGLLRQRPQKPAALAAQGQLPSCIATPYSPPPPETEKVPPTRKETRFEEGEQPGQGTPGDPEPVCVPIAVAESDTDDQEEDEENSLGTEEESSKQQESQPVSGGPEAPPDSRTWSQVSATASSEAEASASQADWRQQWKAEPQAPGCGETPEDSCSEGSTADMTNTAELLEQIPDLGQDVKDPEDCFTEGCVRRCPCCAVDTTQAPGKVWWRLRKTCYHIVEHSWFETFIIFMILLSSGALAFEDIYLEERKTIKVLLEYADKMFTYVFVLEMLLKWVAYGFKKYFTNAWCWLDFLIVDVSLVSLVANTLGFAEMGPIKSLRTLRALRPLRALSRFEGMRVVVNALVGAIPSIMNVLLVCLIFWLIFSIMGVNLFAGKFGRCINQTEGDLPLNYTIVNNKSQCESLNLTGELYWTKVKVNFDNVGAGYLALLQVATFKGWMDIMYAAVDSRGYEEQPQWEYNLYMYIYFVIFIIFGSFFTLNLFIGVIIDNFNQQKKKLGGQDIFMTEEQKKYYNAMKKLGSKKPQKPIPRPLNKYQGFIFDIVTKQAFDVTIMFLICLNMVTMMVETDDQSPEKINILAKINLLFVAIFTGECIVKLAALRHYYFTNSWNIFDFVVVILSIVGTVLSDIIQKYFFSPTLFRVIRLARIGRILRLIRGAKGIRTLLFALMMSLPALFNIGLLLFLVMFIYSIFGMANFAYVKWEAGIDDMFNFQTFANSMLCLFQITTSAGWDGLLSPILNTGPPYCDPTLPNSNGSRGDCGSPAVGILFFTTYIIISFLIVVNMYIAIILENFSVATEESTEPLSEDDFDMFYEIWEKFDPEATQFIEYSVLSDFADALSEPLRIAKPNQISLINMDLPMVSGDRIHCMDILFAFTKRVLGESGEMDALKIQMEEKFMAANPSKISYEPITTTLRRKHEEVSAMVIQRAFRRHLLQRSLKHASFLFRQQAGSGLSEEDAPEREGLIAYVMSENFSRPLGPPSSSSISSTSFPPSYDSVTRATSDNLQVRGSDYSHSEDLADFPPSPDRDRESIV
# Text: Test Example 13: Nav Test
# For the purpose of assessing proarrhythmic risk of the compound of the present invention, effects of the compound of the present invention on Na^+ current (INa), which plays an important role in the myocardial depolarization process, was studied using HEK cells expressing Voltage gated sodium channel (Nav 1.5 channel) encoded by SCNSA gene.
# After a cell was retained at a membrane potential of −100 mV by the whole cell patch clamp method using an automated patch clamp system (QPatch; Sophion Bioscience A/S), INa induced by depolarization pulse stimulation at −10 mV for 20 milliseconds was recorded. An extracellular fluid (NaCl: 145 mmol/L, KCl 4 mmol/L, CaCl2: 2 mmol/L, MgCl2: 1 mmol/L, glucose: 10 mmol/L, HEPES (4-(2-hydroxyethyl)-1-piperazineethanesulfonic acid): 10 mmol/L, tetraethylammonium hydroxide (TEA): 10 mmol/L, pH=7.4) adjusted to 0.3% with dimethyl sulfoxide was used as a vehicle to apply the vehicle and the extracellular fluid containing the compound of the present invention dissolved at a concentration of interest to the cells under conditions of room temperature for 5 minutes or longer. From the obtained INa, the absolute value of the maximum peak current based on the current value at the membrane potential where the cells have been kept was measured using analytical software (QPatch Assay software; Sophion Bioscience A/S). The ratio of the maximum peak current at the time of applying the compound of the present invention to the maximum peak current at the time of applying the vehicle and the electric charge amount at the time of applying the compound of the present invention with respect to the electric charge amount at the time of applying vehicle were calculated, and the influence of the compound of the present invention on INa was evaluated.
# [2] = Test Example 6: Clearance evaluation test; format: in vivo, Rats; details: plasma, 1 umol/kg, rat, intravenous 1 μmol/kg; for half-life: read-out: Elimination half-life (t½) (converted); for clearance: read-out: Total body clearance (CLtot)
# Text: Test Example 6: Clearance Evaluation Test Experimental Material and Method (1) Animals used: Rats were used. (2) Breeding conditions: The rats were allowed to freely take solid food and sterilized tap water. (3) Dose and grouping setting: A predetermined dose was intravenously administered. Groups were set as follows: Intravenous administration: 1 μmol/kg (n=2) (4) Preparation of dosing solution: The test sample was solubilized using a solvent of dimethyl sulfoxide/propylene glycol=1/1 and administered. (5) Administration method: The test sample was administered to the tail vein through a syringe with an injection needle. (6) Evaluation item: Blood was collected over time, and the concentration of the compound of the present invention in plasma was measured using LC/MS/MS. (7) Statistical analysis: Total body clearance (CLtot) and elimination half-life (t½) were calculated as to change in the concentration of the compound of the present invention in plasma by the moment analysis method.
# [3] = system: HIV mutant strains (E92Q/E138T/G140S/Q148H); assay: Test Example 2: Resistance evaluation test (HeLa-CD4 cells, wild and mutant strain); format: cell-based; details: 3 days
# Protocol: Test Example 2: Resistance Evaluation Test
# Serial dilutions of a test sample were prepared in a 96-well microplate (50 μL/well). 2.5×10^5 cells/mL of a HeLa-CD4 cell suspension was dispensed at 100 μL/well to the plate containing the test sample. Then, an HIV virus solution (wild strain and mutant strain) was dispensed at 50 μL/well. The plate was mixed with a plate mixer and cultured for 3 days in a CO2 incubator. The culture supernatant in each well was removed by suction. A cell lysis buffer was dispensed at 100 μL/well, and the plate was frozen in a freezer (−80° C.). The plate frozen in a freezer was thawed at room temperature, then mixed with a plate mixer, and centrifuged at 1,200 rpm for 5 minutes. Beta-Glo Reagent was dispensed at 20 μL/well to a 384-well microplate, 2 μL of the supernatant of each well (diluted as necessary) of the plate after centrifugation was added, and then the mixture was reacted at room temperature for about 30 minutes. The amount of luminescence of the plate after the reaction was measured with a microplate reader. A 50% HIV inhibitory concentration (EC50) was determined from a concentration-dependent curve using the following 4 parameter logistic curve fitting model. y=A+((B−A)/(1+((C/x)^D))) • A=minimum rate of inhibition (negative control, 0%) • B=maximum rate of inhibition (positive control, 100%) • C=compound concentration at an inflection point • D=slope coefficient • x=compound concentration • y=rate of inhibition (%)
# The degree of resistance (fold change (FC)) of each mutant strain was calculated according to the following expression. • FC=EC50 of the mutant strain/EC50 of the wild strain (Results)
# CYP3A4 = molecular target: T2, CYP3A4 (Homo sapiens, UniProt P08684); assay: Test Example 4: CYP3A4 (MDZ) MBI test; format: in vitro ADME; details: pooled human liver microsomes, midazolam 1-hydroxylation, IC 0 min preincubation/IC 30-min preincubation
# T2 construct: pooled human liver microsomes, 0.5 mg/mL for the prereaction; from tissue; host or cells: pooled human liver microsomes
# T2 sequence (P08684 whole entry): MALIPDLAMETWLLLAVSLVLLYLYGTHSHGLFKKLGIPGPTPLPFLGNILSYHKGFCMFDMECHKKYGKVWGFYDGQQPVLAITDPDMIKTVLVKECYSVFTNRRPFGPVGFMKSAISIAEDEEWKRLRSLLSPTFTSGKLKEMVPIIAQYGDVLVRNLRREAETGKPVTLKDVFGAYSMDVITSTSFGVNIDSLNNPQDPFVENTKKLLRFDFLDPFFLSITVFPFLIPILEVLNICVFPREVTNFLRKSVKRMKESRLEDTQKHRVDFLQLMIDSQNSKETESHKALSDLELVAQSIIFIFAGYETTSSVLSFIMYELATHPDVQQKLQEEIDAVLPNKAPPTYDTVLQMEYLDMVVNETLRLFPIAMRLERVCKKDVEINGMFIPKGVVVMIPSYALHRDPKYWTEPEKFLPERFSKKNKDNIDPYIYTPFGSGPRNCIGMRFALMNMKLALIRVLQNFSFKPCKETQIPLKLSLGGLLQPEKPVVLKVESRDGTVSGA
# Protocol: Test Example 4: CYP3A4 (MDZ) MBI Test
# This test as to the inhibition of CYP3A4 by the compound of the present invention is to evaluate mechanism based inhibition (MBI) ability from enhancement in inhibitory effect, caused by a metabolism reaction, of the compound of the present invention. CYP3A4 inhibition was evaluated using pooled human liver microsomes by 1-hydroxylation reaction of midazolam (MDZ) as a marker reaction. […]
# The pooled human liver microsomes and a solution of the compound of the present invention were added according to the recipe of the prereaction described above into a K-Pi buffer solution (pH 7.4) as a prereaction solution in a 96-well plate. […] After centrifuged at 3000 rpm for 15 minutes, 1-hydroxymidazolam in the supernatant was quantified by LC/MS/MS.
# Only a solvent DMSO used for dissolving the compound was added to the reaction solution instead of the compound of the present invention, and the mixture was used as a control (100%). Remaining activity (%) at the time of the addition of the compound of the present invention at each concentration was calculated, and IC was calculated by inverse estimation based on a logistic model using the concentrations and the rates of suppression. A shifted IC value is calculated from IC from the 0 min preincubation/IC from the 30-min preincubation. […]
# HIV [4] = assay: Test Example 14: Anti-HIV activity evaluation test in presence of human serum protein; format: cell-based; details: MT-4 cells; PS=4×(EC50 with 25% human serum protein/EC50 without); 100% extrapolated value
# Protocol: Test Example 14: Anti-HIV Activity Evaluation Test in Presence of Human Serum Protein
# Serial dilutions of a test sample were prepared in a 384-well microplate by a dispensing machine. A human serum protein solution (human serum protein concentration 50%) was dispensed at 20 μL/well to a 384-well microplate containing the test sample and left to stand still at room temperature for 1 hour. A culturing solution was dispensed at 20 μL/well to a plate for the absence of serum. 1 mL of 3.0×10^6 cells/mL of MT-4 cells and a 300 μL HIV virus solution were mixed and reacted at 37° C. for 1 hour. After the reaction, the cell suspension was centrifuged to discard the supernatant, the infected cells were dispersed in 40 mL of a culturing solution and the resultant solution was dispensed at 20 μL/well to a 384-well microplate containing the test sample and the human serum protein (human serum protein final concentration: 25%). The plate was mixed with a plate mixer and cultured for 4 days in a CO2 incubator. On day 4 of culture, CellTiter-Glo or CellTiter-Glo 2.0 was dispensed at 20 μL/well. The plate was reacted while being stirred with the plate mixer at room temperature for about 15 minutes. The amount of luminescence of the plate after the reaction was measured with a microplate reader. […]
# The potency shift (PS) was calculated on the basis of the following calculation formula. […]
# [5] = Test Example 7: Metabolism stability test; format: in vitro ADME; details: human liver microsomes 0.5 mg protein/mL, 30 minutes, 37° C., NADPH, compound concentration 0.5 μmol/L
# Protocol: Test Example 7: Metabolism Stability Test Commercially available pooled human liver microsomes were reacted with the compound of the present invention for a given time. A residual rate was calculated by the comparison between the reacted sample and an unreacted sample to evaluate the degree at which the compound of the present invention was metabolized in the liver. The compound was reacted at 37° C. for 0 minutes or 30 minutes in the presence of 1 mmol/L NADPH in 0.2 mL of a buffer solution (50 mmol/L Tris-HCl pH 7.4, 150 mmol/L potassium chloride, and 10 mmol/L magnesium chloride) containing 0.5 mg protein/mL of the human liver microsomes (oxidative reaction). After the reaction, 50 μL of the reaction solution was added to 100 μL of a solution of methanol/acetonitrile=1/1 (v/v), and the mixture was mixed and centrifuged at 3000 rpm for 15 minutes. The compound of the present invention in the centrifugation supernatant was quantified by LC/MS/MS or solid-phase extraction (SPE)/MS. The amount of the compound of the present invention remaining after the reaction was calculated with the amount of the compound at 0 minutes of the reaction defined as 100%.
Compound,EC50 (HIV [1]),electric charge amount increase rate (Nav 1.5 channel),maximum current amount increase rate (Nav 1.5 channel),half-life [2],clearance [2],"FC (fold change, degree of resistance) = EC50 of the mutant strain/EC50 of the wild strain [3]",Shifted IC grade (mechanism based inhibition) (CYP3A4),Potency shift (PS) in the presence of human serum protein (HIV [4]),Remaining rate [5]
CCN1C(=O)c2c(O)c(=O)c(-c3nnc(Cc4ccc(F)cc4F)s3)cn2[C@H]2CCCC[C@H]21 [Compound I-017],4.2 nM,133%,95.6%,15.3 h,4.27 mL/h/kg,6.0,,,
CCN1C(=O)c2c(O)c(=O)c(-c3nnc(Cc4ccc(F)cc4F)s3)cn2[C@@H]2[C@H]1CCCC2(F)F [Compound I-022],5.3 nM,137%,93.1%,,,,(−) (shifted IC of 1.0 or less is graded as negative (−)),,
CCN1C(=O)c2c(O)c(=O)c(C(=O)NCc3cccc(Cl)c3F)cn2[C@@H]2[C@H]1CCCC2(F)F [Compound I-005],1 nM,,,10.9 h,7.02 mL/h/kg,6.7,,104,
CCN1C(=O)c2c(O)c(=O)c(-c3nnc(Cc4ccc(F)cc4F)s3)cn2[C@H]2CCC[C@H]21 [Compound I-020],5 nM,,,,,7.7,,29,74.6%
CCN1C(=O)c2c(O)c(=O)c(C(=O)NCc3nccc(Cl)c3F)cn2[C@H]2CCCC[C@H]21 [Compound I-003],3.9 nM,,,,,,,,91.7%
